# Measurements published in ChEMBL document CHEMBL5352390, “Design, synthesis and biological evaluation of (Quinazoline 4-yloxy)acetamide and (4-oxoquinazoline-3(4H)-yl)acetamide derivatives as inhibitors of Mycobacterium tuberculosis bd oxidase” (2022).
# Tested on: Mycobacterium tuberculosis
# Assay: Antimycobacterial activity against Mycobacterium tuberculosis H37Rv harboring qcrB deletion mutant assessed as inhibition of bacterial growth incubated for 7 days by resazurin microplate assay
# Type: functional
# Conditions: time 7 day
smiles,measurement,value
O=C(Cn1cnc2ccccc2c1=O)Nc1ccccc1,MIC,>32 µM
O=C(Cn1cnc2ccccc2c1=O)Nc1ccc(OC(F)(F)F)cc1,MIC,>32 µM
O=C(Cn1cnc2ccccc2c1=O)Nc1ccc(F)cc1,MIC,>32 µM
O=C(COc1ncnc2ccccc12)Nc1ccc(F)cc1,MIC,>32 µM
O=C(COc1ncnc2ccccc12)Nc1ccc(C(F)(F)F)cc1,MIC,>32 µM
CSc1ccc(NC(=O)Cn2cnc3ccccc3c2=O)cc1,MIC,>32 µM
O=C(COc1ncnc2ccccc12)NCc1ccccc1,MIC,>32 µM
O=C(Cn1cnc2ccccc2c1=O)Nc1ccc(Cl)cc1,MIC,>32 µM
O=C(COc1ncnc2ccccc12)NCc1ccc(N2CCN(c3ccc(F)cc3)CC2)cc1,MIC,>32 µM
Cc1ccc(NC(=O)Cn2cnc3ccccc3c2=O)cc1,MIC,>32 µM
O=C(COc1ncnc2ccccc12)NCc1ccc(N2CCN(Cc3ccccc3)CC2)cc1,MIC,>32 µM
O=C(COc1ncnc2ccccc12)Nc1ccccc1,MIC,8 µM
COc1ccc(NC(=O)COc2ncnc3ccccc23)cc1,MIC,>32 µM
O=C(Cn1cnc2ccccc2c1=O)Nc1ccc(C(F)(F)F)cc1,MIC,>32 µM
Cc1ccccc1NC(=O)COc1ncnc2ccccc12,MIC,>32 µM
O=C(COc1ncnc2ccccc12)Nc1ccc(Br)cc1,MIC,>32 µM
COc1ccc(N2CCN(c3ccc(CNC(=O)COc4ncnc5ccccc45)cc3)CC2)cc1,MIC,>32 µM
COc1ccc(NC(=O)Cn2cnc3ccccc3c2=O)cc1,MIC,>32 µM
O=C(COc1ncnc2ccccc12)Nc1ccc(Cl)cc1,MIC,16 µM
Cc1ccc(NC(=O)COc2ncnc3ccccc23)cc1,MIC,>32 µM
O=C(COc1ncnc2ccccc12)NCc1ccc(N2CCN(c3ccccc3)CC2)cc1,MIC,>32 µM
COc1ccccc1NC(=O)Cn1cnc2ccccc2c1=O,MIC,>32 µM
O=C(Cn1cnc2ccccc2c1=O)Nc1ccc(Br)cc1,MIC,>32 µM
O=C(Cn1cnc2ccccc2c1=O)NC1=C(C(F)(F)F)CCC=C1,MIC,>32 µM
O=C(COc1ncnc2ccccc12)Nc1cccc2ccccc12,MIC,>32 µM
COc1ccccc1NC(=O)COc1ncnc2ccccc12,MIC,>32 µM
O=C(Cn1cnc2ccccc2c1=O)Nc1ccc([N+](=O)[O-])cc1,MIC,>32 µM
O=C(COc1ncnc2ccccc12)Nc1ccc(OC(F)(F)F)cc1,MIC,>32 µM
O=C(COc1ncnc2ccccc12)NCc1ccc(N2CCC(c3ccccc3)CC2)cc1,MIC,>32 µM
